In patent publication US20170190671A1, “BIS(ARYL)CATECHOL DERIVATIVES AS HERBICIDES” (E I DU PONT DE NEMOURS AND COMPANY, priority 2014, published 2017):

How the values were obtained:
Experiment in all cases: Test C postemergence
Format in all cases: in vivo
[1] = test system: kochia (Kochia scoparia); details: Bassia scoparia, post-emergence, Postemergence, scale 0 to 100, read-out: Plant response rating, Kochia
Outline: (§1)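 Seeds in loam-sand soil were treated preemergence, and plants at the 1- to 4-leaf stage (2-18 cm) in peat-based medium were sprayed postemergence, with test chemicals in a non-phytotoxic solvent containing surfactant. After 13-15 days in a greenhouse, response was rated visually against controls from 0 (no effect) to 100 (complete control).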

[2] = test system: large (Lg) crabgrass (Digitaria sanguinalis); details: Digitaria sanguinalis, post-emergence, 336 h, Postemergence, scale 0 to 100, read-out: Plant response rating, Crabgrass, Large
Outline: as §1

[3] = test system: morningglory (Ipomoea coccinea); details: Ipomoea, post-emergence, 336 h, Postemergence, scale 0 to 100, read-out: Plant response rating, Morningglory
Outline: as §1

[4] = test system: soybean (Glycine max); details: Glycine max, post-emergence, Postemergence, scale 0 to 100, read-out: Plant response rating, Soybean
Outline: as §1

[5] = test system: waterhemp (common waterhemp, Amaranthus rudis); details: Amaranthus tuberculatus, post-emergence, Postemergence, scale 0 to 100, read-out: Plant response rating, Waterhemp
Outline: as §1

[6] = test system: barnyardgrass (Echinochloa crus-galli); details: Echinochloa crus-galli, post-emergence, Postemergence, scale 0 to 100, read-out: Plant response rating, Barnyardgrass
Outline: as §1

[7] = test system: pigweed (Amaranthus retroflexus); details: Amaranthus retroflexus, post-emergence, 336 h, Postemergence, scale 0 to 100, read-out: Plant response rating, Pigweed
Outline: as §1

[8] = test system: Italian ryegrass (Lolium multiflorum); details: Lolium multiflorum, post-emergence, 336 h, Postemergence, scale 0 to 100, read-out: Plant response rating, Ryegrass, Italian
Outline: as §1

[9] = test system: oilseed rape (Brassica napus); details: Brassica napus, post-emergence, Postemergence, scale 0 to 100, read-out: Plant response rating, Oilseed Rape
Outline: as §1

[10] = test system: winter wheat (Triticum aestivum); details: Triticum aestivum, post-emergence, 336 h, Postemergence, scale 0 to 100, read-out: Plant response rating, Wheat
Outline: as §1

[11] = test system: galium (catchweed bedstraw, Galium aparine); details: Galium, post-emergence, 336 h, Postemergence, scale 0 to 100, read-out: Plant response rating, Galium
Outline: as §1

[12] = test system: corn (Zea mays); details: Zea mays, post-emergence, 336 h, Postemergence, scale 0 to 100
Outline: as §1

[13] = test system: johnsongrass (Sorghum halepense); details: Sorghum halepense, post-emergence, 336 h, Postemergence, scale 0 to 100, read-out: Plant response rating, Johnsongrass
Outline: as §1

[14] = test system: wild oat (Avena fatua); details: Avena fatua, post-emergence, Postemergence, scale 0 to 100, read-out: Plant response rating, Oat, Wild
Outline: as §1

[15] = test system: ragweed (common ragweed, Ambrosia elatior); details: Ambrosia artemisiifolia, post-emergence, 336 h, Postemergence, scale 0 to 100, read-out: Plant response rating, Ragweed
Outline: as §1

**Q.** How did the pest or weed control at 16 g/ha ([1]; 16 g ai/ha) turn out when `Fc1cccc(Oc2ncc(Cl)cn2)c1Oc1ncc(C(F)(F)F)cn1` [Compound 43, 5-chloro-2-[5-fluoro-6-[[5-(trifluoromethyl)-2-pyrimidinyl]oxy]phenoxy]pyrimidine] was run?
**A.** 90%

**Q.** What about the pest or weed control at 31 g/ha ([1]; 31 g ai/ha) of the same compound?
**A.** 95%

**Q.** And the pest or weed control at 62 g/ha ([1]; 62 g ai/ha)?
**A.** 100%

**Q.** What about the pest or weed control at 125 g/ha ([1]; 125 g ai/ha) of the same compound?
**A.** 100%

**Q.** And the pest or weed control at 16 g/ha ([2]; 16 g ai/ha)?
**A.** 5%

**Q.** What about the pest or weed control at 31 g/ha ([2]; 31 g ai/ha) of the same compound?
**A.** 5%

**Q.** And the pest or weed control at 62 g/ha ([2]; 62 g ai/ha)?
**A.** 10%

**Q.** What about the pest or weed control at 125 g/ha ([2]; 125 g ai/ha) of the same compound?
**A.** 40%

**Q.** What about the pest or weed control at 31 g/ha ([3]; 31 g ai/ha) of the same compound?
**A.** 85%

**Q.** And the pest or weed control at 62 g/ha ([3]; 62 g ai/ha)?
**A.** 80%

**Q.** What about the pest or weed control at 125 g/ha ([3]; 125 g ai/ha) of the same compound?
**A.** 80%

**Q.** What about the plant injury at 31 g/ha ([4]; 31 g ai/ha) of the same compound?
**A.** 55%

**Q.** What about the plant injury at 62 g/ha ([4]; 62 g ai/ha) of the same compound?
**A.** 75%

**Q.** What about the plant injury at 125 g/ha ([4]; 125 g ai/ha) of the same compound?
**A.** 70%

**Q.** And the pest or weed control at 31 g/ha ([5]; 31 g ai/ha)?
**A.** 70%

**Q.** What about the pest or weed control at 62 g/ha ([5]; 62 g ai/ha) of the same compound?
**A.** 80%

**Q.** And the pest or weed control at 125 g/ha ([5]; 125 g ai/ha)?
**A.** 90%

**Q.** And the pest or weed control at 16 g/ha ([6]; 16 g ai/ha)?
**A.** 5%

**Q.** What about the pest or weed control at 31 g/ha ([6]; 31 g ai/ha) of the same compound?
**A.** 5%

**Q.** What about the pest or weed control at 62 g/ha ([6]; 62 g ai/ha) of the same compound?
**A.** 10%

**Q.** And the pest or weed control at 125 g/ha ([6]; 125 g ai/ha)?
**A.** 35%

**Q.** And the pest or weed control at 31 g/ha ([7]; 31 g ai/ha)?
**A.** 85%

**Q.** What about the pest or weed control at 62 g/ha ([7]; 62 g ai/ha) of the same compound?
**A.** 90%

**Q.** What about the pest or weed control at 125 g/ha ([7]; 125 g ai/ha) of the same compound?
**A.** 98%

**Q.** And the pest or weed control at 31 g/ha ([8]; 31 g ai/ha)?
**A.** 0%

**Q.** What about the pest or weed control at 62 g/ha ([8]; 62 g ai/ha) of the same compound?
**A.** 10%

**Q.** What about the pest or weed control at 125 g/ha ([8]; 125 g ai/ha) of the same compound?
**A.** 15%

**Q.** And the plant injury at 31 g/ha ([9]; 31 g ai/ha)?
**A.** 50%

**Q.** What about the plant injury at 62 g/ha ([9]; 62 g ai/ha) of the same compound?
**A.** 65%

**Q.** And the plant injury at 125 g/ha ([9]; 125 g ai/ha)?
**A.** 50%

**Q.** And the plant injury at 31 g/ha ([10]; 31 g ai/ha)?
**A.** 0%

**Q.** And the plant injury at 62 g/ha ([10]; 62 g ai/ha)?
**A.** 0%

**Q.** What about the plant injury at 125 g/ha ([10]; 125 g ai/ha) of the same compound?
**A.** 5%

**Q.** And the pest or weed control at 16 g/ha ([11]; 16 g ai/ha)?
**A.** 35%

**Q.** And the pest or weed control at 31 g/ha ([11]; 31 g ai/ha)?
**A.** 80%

**Q.** And the pest or weed control at 62 g/ha ([11]; 62 g ai/ha)?
**A.** 85%

**Q.** And the pest or weed control at 125 g/ha ([11]; 125 g ai/ha)?
**A.** 90%

**Q.** What about the Corn plant response rating (crop injury, 0 = no effect, 100 = complete kill) at 16 g/ha ([12]; 16 g ai/ha) of the same compound?
**A.** 5%

**Q.** What about the Corn plant response rating (crop injury, 0 = no effect, 100 = complete kill) at 31 g/ha ([12]; 31 g ai/ha) of the same compound?
**A.** 5%

**Q.** And the Corn plant response rating (crop injury, 0 = no effect, 100 = complete kill) at 62 g/ha ([12]; 62 g ai/ha)?
**A.** 5%

**Q.** And the Corn plant response rating (crop injury, 0 = no effect, 100 = complete kill) at 125 g/ha ([12]; 125 g ai/ha)?
**A.** 5%

**Q.** And the pest or weed control at 16 g/ha ([13]; 16 g ai/ha)?
**A.** 0%

**Q.** And the pest or weed control at 31 g/ha ([13]; 31 g ai/ha)?
**A.** 5%

**Q.** What about the pest or weed control at 62 g/ha ([13]; 62 g ai/ha) of the same compound?
**A.** 10%

**Q.** And the pest or weed control at 125 g/ha ([13]; 125 g ai/ha)?
**A.** 45%

**Q.** What about the pest or weed control at 31 g/ha ([14]; 31 g ai/ha) of the same compound?
**A.** 5%

**Q.** And the pest or weed control at 62 g/ha ([14]; 62 g ai/ha)?
**A.** 20%

**Q.** And the pest or weed control at 125 g/ha ([14]; 125 g ai/ha)?
**A.** 60%

**Q.** And the pest or weed control at 31 g/ha ([15]; 31 g ai/ha)?
**A.** 75%

**Q.** What about the pest or weed control at 62 g/ha ([15]; 62 g ai/ha) of the same compound?
**A.** 65%

**Q.** And the pest or weed control at 125 g/ha ([15]; 125 g ai/ha)?
**A.** 80%
